# From patent publication US12239705B2, “Therapeutic mitigation of epithelial infection” (priority 2018, dated 2025)
# Columns and labels:
# [1] = test system: vaccinia virus; assay: Vaccinia virus plaque formation in IL-4/13-treated PHFK exposed to P6; type: cell-based; settings: PHFK in IL-4 and IL-13; 50 or 200 nM; 200 pfu VV; three days post infection; n=7 donors
# [2] = test system: PHFK cells; assay: Cell viability of differentiated PHFK by LDH and WST-1 assay; settings: PHFK differentiated 2 days; 24 hours
# Description: Briefly, PHFK cells were differentiated for 2 days in the same manner described above. […] Cell viability was measured by LDH and WST-1 assay 24 hours later.
# [3] = test system: PHFK cells; assay: TEER barrier function of IL-4/13-treated PHFK exposed to P6; type: cell-based, human; settings: PHFK in IL-4 and IL-13 for two days; 50 or 100 nM; versus DMSO control
# Description: TEER was taken daily. Data was normalized to Th2 treated samples (n=5-7 donors for TEER (SEM)). Significance was tested versus a DMSO control.
smiles,measurement,setting,value
"CC(C)(C)c1nc2c3cc[nH]c(=O)c3c3cc(F)ccc3c2[nH]1 [P6, Pyridone 6]",keratinocyte susceptibility to viral infection (plaque number normalized to IL-4/13 treated controls),[1],reversed keratinocyte susceptibility to viral infection in a dose dependent manner
same,concentration not toxic to keratinocytes (LDH and WST-1),[2],≥ 1 µM
same,barrier function (TEER normalized to Th2 treated samples),[3],improved barrier function in keratinocytes in a dose dependent manner
